{
  "source": "patent US10208023B2",
  "about": "“Heterocyclic inhibitors of the sodium channel” (priority 2013, dated 2019)",
  "key": {"[1]": {"test_system": "formalin test in rats", "experiment": "Formalin test in rats (automated flinch detection)", "assay_type": "in vivo", "conditions": "rat; for Phase 1 paw flinches: Phase I (0-9 mins); for Total Phase 2 paw flinches: Phase II (10-60 mins); for Phase 2a paw flinches: Phase IIA (10-40 mins); for Phase 2b paw flinches: Phase IIB (41-60 mins)", "description": "The formalin test in rats was performed as previously described (McNamara, 2007. Proc. Natl. Acad. Sci., vol 104, page 13525) using an automated flinch-detecting system (T. Yaksh, University of California at San Diego, La Jolla, Calif.). On the day of testing, a small metal band (0.5 g) was loosely placed around the right hind paw of a male Sprague-Dawley rat (average weight, ˜250 g). The rats were allowed to acclimate to a Plexiglas chamber for at least 30 min before testing. Formalin was then injected (50 μl of 2.5% formalin, diluted in saline) into the dorsal surface of the right hind paw of the rat, and the animal was put into a chamber of the automated formalin apparatus where movement of the formalin-injected paw was recorded. The number of paw flinches per minute was tallied for the next 60 minutes. The time interval phases were defined as follows: Phase I (0-9 mins), Phase II (10-60 mins), Phase IIA (10-40 mins), and Phase IIB (41-60 mins). The following compounds were administered 1 hour prior to formalin administration. Compound 52 from Table 1 was administered by oral gavage in 4% DMSO, 10% Solutol, 86% H2O. Gabapentin was administered subcutaneously in 0.9% NaCl (aq). 4."}, "[2]": {"target": "hNav1.7 (Homo sapiens (Human), UniProt Q15858)", "sequence (Q15858 whole entry)": "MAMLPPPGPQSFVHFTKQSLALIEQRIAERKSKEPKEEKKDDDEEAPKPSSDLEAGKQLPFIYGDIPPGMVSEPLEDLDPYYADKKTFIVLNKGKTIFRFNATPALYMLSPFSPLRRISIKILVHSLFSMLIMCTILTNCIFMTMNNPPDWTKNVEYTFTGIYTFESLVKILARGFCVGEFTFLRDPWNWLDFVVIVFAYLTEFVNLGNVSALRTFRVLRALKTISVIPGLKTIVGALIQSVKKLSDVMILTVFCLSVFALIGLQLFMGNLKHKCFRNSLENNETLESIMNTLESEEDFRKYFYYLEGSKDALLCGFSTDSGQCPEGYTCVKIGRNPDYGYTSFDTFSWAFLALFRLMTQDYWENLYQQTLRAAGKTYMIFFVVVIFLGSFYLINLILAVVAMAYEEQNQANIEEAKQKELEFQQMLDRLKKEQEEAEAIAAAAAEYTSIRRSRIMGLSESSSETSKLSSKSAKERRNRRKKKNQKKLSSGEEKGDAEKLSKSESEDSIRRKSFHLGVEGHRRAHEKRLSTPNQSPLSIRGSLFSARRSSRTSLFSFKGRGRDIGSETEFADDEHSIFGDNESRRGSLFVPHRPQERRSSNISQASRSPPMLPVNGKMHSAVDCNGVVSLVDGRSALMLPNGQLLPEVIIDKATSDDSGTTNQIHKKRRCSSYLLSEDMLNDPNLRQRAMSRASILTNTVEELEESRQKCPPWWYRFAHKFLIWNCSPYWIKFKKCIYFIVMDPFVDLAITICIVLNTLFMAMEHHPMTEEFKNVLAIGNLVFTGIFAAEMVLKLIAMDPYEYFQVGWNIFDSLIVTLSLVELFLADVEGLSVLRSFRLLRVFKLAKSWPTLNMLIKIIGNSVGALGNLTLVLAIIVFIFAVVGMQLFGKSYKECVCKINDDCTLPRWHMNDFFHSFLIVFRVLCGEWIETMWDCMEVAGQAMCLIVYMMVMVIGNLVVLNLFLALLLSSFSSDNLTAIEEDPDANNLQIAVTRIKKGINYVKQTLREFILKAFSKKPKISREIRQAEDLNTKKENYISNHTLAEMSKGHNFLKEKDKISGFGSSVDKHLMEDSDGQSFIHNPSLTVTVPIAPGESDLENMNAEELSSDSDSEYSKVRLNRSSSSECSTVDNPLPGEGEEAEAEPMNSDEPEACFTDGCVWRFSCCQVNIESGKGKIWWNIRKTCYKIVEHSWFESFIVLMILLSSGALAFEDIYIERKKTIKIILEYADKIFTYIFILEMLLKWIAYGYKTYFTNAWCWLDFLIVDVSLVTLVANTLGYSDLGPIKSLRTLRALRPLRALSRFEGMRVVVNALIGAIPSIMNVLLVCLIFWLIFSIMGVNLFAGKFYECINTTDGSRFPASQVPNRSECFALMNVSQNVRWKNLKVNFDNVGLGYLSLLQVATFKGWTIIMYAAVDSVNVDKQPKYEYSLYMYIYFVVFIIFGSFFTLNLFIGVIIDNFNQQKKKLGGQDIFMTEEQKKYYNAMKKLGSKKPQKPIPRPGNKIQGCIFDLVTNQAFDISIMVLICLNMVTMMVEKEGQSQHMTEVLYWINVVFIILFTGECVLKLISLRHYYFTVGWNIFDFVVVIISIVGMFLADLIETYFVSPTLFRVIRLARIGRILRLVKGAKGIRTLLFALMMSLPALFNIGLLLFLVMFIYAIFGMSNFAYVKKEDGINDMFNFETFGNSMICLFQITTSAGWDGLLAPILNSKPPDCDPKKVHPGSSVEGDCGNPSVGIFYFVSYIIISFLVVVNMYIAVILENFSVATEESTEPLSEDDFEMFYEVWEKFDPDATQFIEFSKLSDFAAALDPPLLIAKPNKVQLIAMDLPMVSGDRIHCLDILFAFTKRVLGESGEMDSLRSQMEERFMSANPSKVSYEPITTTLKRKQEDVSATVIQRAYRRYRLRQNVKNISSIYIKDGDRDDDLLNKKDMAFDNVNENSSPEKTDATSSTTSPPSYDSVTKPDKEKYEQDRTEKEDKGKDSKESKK", "sequence (Q07699 19-218 partner)": "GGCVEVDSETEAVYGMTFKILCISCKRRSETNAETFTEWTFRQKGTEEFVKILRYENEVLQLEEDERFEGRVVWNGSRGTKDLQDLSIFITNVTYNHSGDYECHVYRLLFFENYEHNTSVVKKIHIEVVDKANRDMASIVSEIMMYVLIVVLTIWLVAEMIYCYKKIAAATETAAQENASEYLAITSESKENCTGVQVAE", "experiment": "Nav1.7 potency, Patchliner automated patch clamp", "assay_type": "cell-based", "conditions": "automated patchclamp", "description": "The generation of a HEK 293F cell line stably expressing human Nav1.7/Navβ1 was achieved by co-transfecting human SCN9A and human SCN1B cDNAs, subcloned into plasmid vectors, utilizing standard transfection techniques. Clones were selected using appropriate selection agents (0.3 mg/mL Zeocin and 0.8 mg/mL Geneticin) and maintained in Dulbecco's Modified Eagle medium, 10% fetal bovine serum, 1% non-essential amino acids to ˜80% confluence at 37° C. in a humidified incubator with 95% atmosphere and 5% CO2.\nIn some cases, the potency of compounds was measured using either the Patchliner automated patch clamp platform (Nanion) or manual patch clamp techniques. Both approaches allowed the compounds to be characterized based upon the ability of a compound to modulate use- and/or state-dependence. The potency data is tabulated in Table 3 and is represented by eight data fields. The first four fields represent potency data measured with the Patchliner automated platform under varying use- and state-dependent electrophysiology protocols similar to the Patch express protocols detailed above. The first data column describes the potency of compounds when the Nav1.7 channel is being repetitively activated at a 7 Hz hyperpolarization frequency (Table 3: hNav1.7: IC50 of inward current block at 7 Hz, Automated patchclamp). The second data column represents the potency at which 50% of the initial hyperpolarization pulse is inhibited by the compounds (Table 3: hNav1.7: IC50 of P1 block, Automated patchclamp). The third data column details the potency of compounds in their ability to block 50% of Nav1.7 channels when these channels are induced into the slow inactivated state (Table 3: hNav1.7: IC50 of slow inactivation block, Automated patchclamp). […] The next three data fields describe the data generated from manual patchclamp electrophysiology measurements using similar methods to those employed for automated patchclamp studies. […] The last column characterizes the state-dependence of compound inhibition. […]"}, "[3]": {"conditions": "3 mg/kg oral gavage 1 hour prior to formalin"}, "[4]": {"conditions": "10 mg/kg oral gavage 1 hour prior to formalin"}, "[5]": {"conditions": "30 mg/kg oral gavage 1 hour prior to formalin"}, "[6]": {"conditions": "100 mg/kg SC 1 hour prior to formalin"}},
  "note": "Like-named read-outs stand apart in the source and are kept apart here.",
  "data": [
    {"smiles": "NC1(c2nc3cc(C(F)(F)F)cc(C(F)(F)F)c3[nH]2)Cc2ccccc2C1", "note": "[Compound 52, 2-(4,6-bis(trifluoromethyl)-1H-benzo[d]imidazol-2-yl)-2,3-dihydro-1H-inden-2-amine]", "values": [
      {"measurement": "Phase 1 paw flinches", "setting": "[1]; [3]", "result": "345 ± 75"},
      {"measurement": "Total Phase 2 paw flinches", "setting": "[1]; [3]", "result": "1365 ± 174"},
      {"measurement": "Phase 2a paw flinches", "setting": "[1]; [3]", "result": "988 ± 139"},
      {"measurement": "Phase 2b paw flinches", "setting": "[1]; [3]", "result": "377 ± 79"},
      {"measurement": "Phase 1 paw flinches", "setting": "[1]; [4]", "result": "315 ± 58"},
      {"measurement": "Total Phase 2 paw flinches", "setting": "[1]; [4]", "result": "962 ± 189"},
      {"measurement": "Phase 2a paw flinches", "setting": "[1]; [4]", "result": "758 ± 199"},
      {"measurement": "Phase 2b paw flinches", "setting": "[1]; [4]", "result": "204 ± 66"},
      {"measurement": "Phase 1 paw flinches", "setting": "[1]; [5]", "result": "333 ± 75"},
      {"measurement": "Total Phase 2 paw flinches", "setting": "[1]; [5]", "result": "853 ± 259"},
      {"measurement": "Phase 2a paw flinches", "setting": "[1]; [5]", "result": "706 ± 261"},
      {"measurement": "Phase 2b paw flinches", "setting": "[1]; [5]", "result": "147 ± 101"}
    ]},
    {"smiles": "N[C@H](Cc1cccc(C(F)(F)F)c1)C(=O)NCc1nc2c(C(F)(F)F)cc(C(F)(F)F)cc2[nH]1", "note": "[Compound 75, (R)-2-amino-N-((4,6-bis(trifluoromethyl)-1H-benzo[d]imidazol-2-yl)methyl)-3-(3-(trifluoromethyl)phenyl) propanamide]", "values": [
      {"measurement": "IC50", "setting": "[2]; 7 Hz, read-out: Nav1.7 IC50 INWARD CURRENT BLOCK (nM) (7 Hz, Automated Patchclamp)", "result": 15000, "unit": "nM"},
      {"measurement": "IC50", "setting": "[2]; initial pulse (P1), read-out: Nav1.7 IC50 P1 BLOCK (nM) (Automated Patchclamp)", "result": 15000, "unit": "nM"},
      {"measurement": "IC50", "setting": "[2]; slow inactivated state, read-out: Nav1.7 IC50 SLOW INACTIVATION BLOCK (nM) (Automated Patchclamp)", "result": 15000, "unit": "nM"}
    ]},
    {"smiles": "NCC1(CC(=O)O)CCCCC1", "note": "[Gabapentin, reference compound]", "values": [
      {"measurement": "Phase 1 paw flinches", "setting": "[1]; [6]", "result": "320 ± 58"},
      {"measurement": "Total Phase 2 paw flinches", "setting": "[1]; [6]", "result": "562 ± 213"},
      {"measurement": "Phase 2a paw flinches", "setting": "[1]; [6]", "result": "486 ± 202"},
      {"measurement": "Phase 2b paw flinches", "setting": "[1]; [6]", "result": "77 ± 47"}
    ]}
  ]
}
